Data as given in paper PMC7311426, “An amphipathic peptide with antibiotic activity against multidrug-resistant Gram-negative bacteria” (Nature Communications, 2020).

System: A. baumannii clinical isolates
Experiment: microbe, parasite or virus in culture
Experimental: The in vitro activity of AA139 and comparator antimicrobials was determined in two panels of clinical isolates of E. coli, K. pneumoniae, P. aeruginosa, and A. baumannii (Supplementary Table 3), and MIC90 presented. The US panel consisted of 331 clinical isolates from 2010 to 2012. It was tested by BMD in accordance with the CLSI guidelines (M07-A9, 2012)[39]. […] AA139 was diluted in 0.01% acetic acid/0.1% bovine serum albumin. Sterile polypropylene culture cluster round-bottom 96-well plates (Costar # 3879) were used for testing. The worldwide panel consisted of 445 clinical isolates from 2011 to 2013, geographically divided into Asia, Europe, North America, and Rest of World (Middle East, Latin America, Africa, and South Pacific) with each region representing ~25% of the isolates. It was tested by broth microdilution in accordance with the CLSI guidelines (M07-A9, 2012)[39]. […] The test media was CAMHB (Becton Dickinson). AA139 and polymyxin B were tested in media supplemented with 0.002% Tween 80 (Calbiochem). MIC90 values were calculated for all or subsets of the isolates. MIC correlation between AA139 and colistin was analyzed with data from the US panel.

[1] = US isolates 2010-2012, isolate CID 1919446, Rep 1
[2] = US isolates 2010-2012, isolate CID 1919446, Rep 2
[3] = US isolates 2010-2012, isolate CID 1919519, Rep 1
[4] = US isolates 2010-2012, isolate CID 1919519, Rep 2
[5] = US isolates 2010-2012, isolate CID 1919714, Rep 1
[6] = US isolates 2010-2012, isolate CID 1919714, Rep 2
[7] = US isolates 2010-2012, isolate CID 1919942, Rep 1
[8] = US isolates 2010-2012, isolate CID 1919942, Rep 2
[9] = US isolates 2010-2012, isolate CID 1930670, Rep 1
[10] = US isolates 2010-2012, isolate CID 1930670, Rep 2
[11] = US isolates 2010-2012, isolate CID 1930676, Rep 1
[12] = US isolates 2010-2012, isolate CID 1930676, Rep 2
[13] = US isolates 2010-2012, isolate CID 2727597, Rep 1
[14] = US isolates 2010-2012, isolate CID 2727597, Rep 2
[15] = US isolates 2010-2012, isolate CID 2727598, Rep 1
[16] = US isolates 2010-2012, isolate CID 2727598, Rep 2
[17] = US isolates 2010-2012, isolate CID 2727898, Rep 1
[18] = US isolates 2010-2012, isolate CID 2727898, Rep 2
[19] = US isolates 2010-2012, isolate CID 2728115, Rep 1
[20] = US isolates 2010-2012, isolate CID 2728115, Rep 2
[21] = US isolates 2010-2012, isolate CID 2728119, Rep 1
[22] = US isolates 2010-2012, isolate CID 2728119, Rep 2
[23] = US isolates 2010-2012, isolate CID 2728650, Rep 1
[24] = US isolates 2010-2012, isolate CID 2728650, Rep 2
[25] = US isolates 2010-2012, isolate CID 2728663, Rep 1
[26] = US isolates 2010-2012, isolate CID 2728663, Rep 2
[27] = US isolates 2010-2012, isolate CID 2732481, Rep 1
[28] = US isolates 2010-2012, isolate CID 2732481, Rep 2
[29] = US isolates 2010-2012, isolate CID 2732486, Rep 1
[30] = US isolates 2010-2012, isolate CID 2732486, Rep 2
[31] = US isolates 2010-2012, isolate CID 2762740, Rep 1
[32] = US isolates 2010-2012, isolate CID 2762740, Rep 2
[33] = US isolates 2010-2012, isolate CID 2801947, Rep 1
[34] = US isolates 2010-2012, isolate CID 2801947, Rep 2
[35] = US isolates 2010-2012, isolate CID 2801949, Rep 1
[36] = US isolates 2010-2012, isolate CID 2801949, Rep 2
[37] = US isolates 2010-2012, isolate CID 2802027, Rep 1
[38] = US isolates 2010-2012, isolate CID 2802027, Rep 2
[39] = US isolates 2010-2012, isolate CID 2802028, Rep 1
[40] = US isolates 2010-2012, isolate CID 2802028, Rep 2
[41] = US isolates 2010-2012, isolate CID 2802029, Rep 1
[42] = US isolates 2010-2012, isolate CID 2802029, Rep 2
[43] = US isolates 2010-2012, isolate CID 2802031, Rep 1
[44] = US isolates 2010-2012, isolate CID 2802031, Rep 2
[45] = US isolates 2010-2012, isolate CID 2802109, Rep 2
[46] = US isolates 2010-2012, isolate CID 2802111, Rep 2
[47] = US isolates 2010-2012, isolate CID 2802187, Rep 1
[48] = US isolates 2010-2012, isolate CID 2802187, Rep 2

Measured: MIC

C[C@@H](O)[C@H]1C(=O)N2C(C(=O)O)=C(S[C@@H]3CN[C@H](C(=O)N(C)C)C3)[C@H](C)[C@H]12 [Mero]
0.25 µg/mL: [33] | [34] | [36]
2 µg/mL: [2] | [26] | [48]
1 µg/mL: [1] | [7] | [8] | [25] | [35] | [43] | [44] | [47]
0.5 µg/mL: [11] | [12] | [17] | [18]
16 µg/mL: [9] | [23] | [24]
> 16 µg/mL: [3] | [4] | [5] | [6] | [10] | [13] | [14] | [15] | [16] | [19] | [20] | [21] | [22] | [27] | [28] | [29] | [30] | [31] | [32] | [37] | [38] | [39] | [40] | [41] | [42] | [45] | [46]

CC(C)(O/N=C(\C(=O)N[C@@H]1C(=O)N2C(C(=O)[O-])=C(C[n+]3ccccc3)CS[C@H]12)c1csc(N)n1)C(=O)O [Ceftaz]
8 µg/mL: [7] | [35] | [46]
> 32 µg/mL: [3] | [4] | [5] | [6] | [9] | [10] | [13] | [14] | [15] | [16] | [19] | [20] | [23] | [24] | [25] | [26] | [29] | [31] | [32] | [37] | [38] | [39] | [40] | [41] | [42] | [43] | [44]
4 µg/mL: [1] | [2] | [8] | [11] | [12] | [18] | [47] | [48]
2 µg/mL: [17] | [33] | [34] | [36]
32 µg/mL: [21] | [22] | [27] | [28] | [30] | [45]

CN(C)c1cc(NC(=O)CNC(C)(C)C)c(O)c2c1C[C@H]1C[C@H]3[C@H](N(C)C)C(O)=C(C(N)=O)C(=O)[C@@]3(O)C(O)=C1C2=O [Tig]
0.25 µg/mL: [7] | [11] | [12] | [33] | [36] | [47] | [48]
2 µg/mL: [1] | [3] | [4] | [5] | [6] | [13] | [14] | [19] | [20] | [21] | [22] | [25] | [27] | [41] | [42] | [46]
1 µg/mL: [2] | [10] | [15] | [16] | [23] | [24] | [26] | [28] | [29] | [30] | [37] | [43] | [44] | [45]
8 µg/mL: [32]
0.12 µg/mL: [17] | [18] | [34]
0.5 µg/mL: [8] | [9] | [31] | [35] | [38] | [39] | [40]
